Results from PubChem BioAssay (NCI).
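Assay format: 96-well plates, 48-hour exposure. The concentration for full growth arrest is given as TGI.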 Where a SMILES comes first, the peptide text is derived from it. The star is where a group is joined. Boc = CC(C)(C)OC(=O)*

Legend:
Test in all cases: DTP human tumour cell line panel, 48 h
786-0 renal = tested on: 786-0 renal
A498 renal = tested on: A498 renal
A549 NSCLC = tested on: A549 NSCLC
ACHN renal = tested on: ACHN renal
BT-549 breast = tested on: BT-549 breast
CAKI-1 renal = tested on: CAKI-1 renal
CCRF-CEM leukemia = tested on: CCRF-CEM leukemia
COLO 205 colon = tested on: COLO 205 colon
DU-145 prostate = tested on: DU-145 prostate
EKVX NSCLC = tested on: EKVX NSCLC
HCT-116 colon = tested on: HCT-116 colon
HCT-15 colon = tested on: HCT-15 colon
HL-60(TB) leukemia = tested on: HL-60(TB) leukemia
HOP-62 NSCLC = tested on: HOP-62 NSCLC
HOP-92 NSCLC = tested on: HOP-92 NSCLC
HS 578T breast = tested on: HS 578T breast
HT29 colon = tested on: HT29 colon
IGROV1 ovarian = tested on: IGROV1 ovarian
KM12 colon = tested on: KM12 colon
LOX IMVI melanoma = tested on: LOX IMVI melanoma
M14 melanoma = tested on: M14 melanoma
MALME-3M melanoma = tested on: MALME-3M melanoma
MCF7 breast = tested on: MCF7 breast
MDA-MB-231 breast = tested on: MDA-MB-231 breast
MDA-MB-435 = tested on: MDA-MB-435
MDA-N = tested on: MDA-N
MOLT-4 leukemia = tested on: MOLT-4 leukemia
NCI-H226 lung = tested on: NCI-H226 lung
NCI-H23 lung = tested on: NCI-H23 lung
NCI-H460 lung = tested on: NCI-H460 lung
NCI-H522 lung = tested on: NCI-H522 lung
OVCAR-3 ovarian = tested on: OVCAR-3 ovarian
OVCAR-4 ovarian = tested on: OVCAR-4 ovarian
OVCAR-5 ovarian = tested on: OVCAR-5 ovarian
OVCAR-8 ovarian = tested on: OVCAR-8 ovarian
PC-3 prostate = tested on: PC-3 prostate
RXF 393 renal = tested on: RXF 393 renal
SF-268 CNS = tested on: SF-268 CNS
SF-295 CNS = tested on: SF-295 CNS
SF-539 CNS = tested on: SF-539 CNS
SK-MEL-2 melanoma = tested on: SK-MEL-2 melanoma
SK-MEL-28 melanoma = tested on: SK-MEL-28 melanoma
SK-MEL-5 melanoma = tested on: SK-MEL-5 melanoma
SK-OV-3 ovarian = tested on: SK-OV-3 ovarian
SN12C renal = tested on: SN12C renal
SNB-19 CNS = tested on: SNB-19 CNS
SNB-75 CNS = tested on: SNB-75 CNS
SW-620 colon = tested on: SW-620 colon
T-47D breast = tested on: T-47D breast
TK-10 renal = tested on: TK-10 renal
U251 CNS = tested on: U251 CNS
UACC-257 melanoma = tested on: UACC-257 melanoma
UACC-62 melanoma = tested on: UACC-62 melanoma
UO-31 renal = tested on: UO-31 renal
K-562 leukemia = tested on: K-562 leukemia
NCI/ADR-RES ovarian = tested on: NCI/ADR-RES ovarian
RPMI-8226 leukemia = tested on: RPMI-8226 leukemia
HCC-2998 colon = tested on: HCC-2998 colon
SR leukemia = tested on: SR leukemia

Measured: TGI

CC(=O)CC1=C(OC(C)C)C2(OCCO2)C1O (centres undefined)
> 100 µM: 786-0 renal | A498 renal | A549 NSCLC | ACHN renal | BT-549 breast | CAKI-1 renal | CCRF-CEM leukemia | COLO 205 colon | DU-145 prostate | EKVX NSCLC | HCT-116 colon | HCT-15 colon | HL-60(TB) leukemia | HOP-62 NSCLC | HOP-92 NSCLC | HS 578T breast | HT29 colon | IGROV1 ovarian | KM12 colon | LOX IMVI melanoma | M14 melanoma | MALME-3M melanoma | MCF7 breast | MDA-MB-231 breast | MDA-MB-435 | MDA-N | MOLT-4 leukemia | NCI-H226 lung | NCI-H23 lung | NCI-H460 lung | NCI-H522 lung | OVCAR-3 ovarian | OVCAR-4 ovarian | OVCAR-5 ovarian | OVCAR-8 ovarian | PC-3 prostate | RXF 393 renal | SF-268 CNS | SF-295 CNS | SF-539 CNS | SK-MEL-2 melanoma | SK-MEL-28 melanoma | SK-MEL-5 melanoma | SK-OV-3 ovarian | SN12C renal | SNB-19 CNS | SNB-75 CNS | SW-620 colon | T-47D breast | TK-10 renal | U251 CNS | UACC-257 melanoma | UACC-62 melanoma | UO-31 renal

CNc1nc(C(N)=O)c(N)s1
> 100 µM: 786-0 renal | A498 renal | A549 NSCLC | ACHN renal | BT-549 breast | CAKI-1 renal | CCRF-CEM leukemia | COLO 205 colon | DU-145 prostate | EKVX NSCLC | HCT-116 colon | HCT-15 colon | HL-60(TB) leukemia | HOP-62 NSCLC | HOP-92 NSCLC | HS 578T breast | HT29 colon | IGROV1 ovarian | K-562 leukemia | KM12 colon | LOX IMVI melanoma | M14 melanoma | MALME-3M melanoma | MDA-MB-231 breast | MDA-MB-435 | MDA-N | MOLT-4 leukemia | NCI-H226 lung | NCI-H23 lung | NCI-H460 lung | NCI-H522 lung | NCI/ADR-RES ovarian | OVCAR-3 ovarian | OVCAR-4 ovarian | OVCAR-5 ovarian | OVCAR-8 ovarian | PC-3 prostate | RPMI-8226 leukemia | RXF 393 renal | SF-268 CNS | SF-295 CNS | SF-539 CNS | SK-MEL-2 melanoma | SK-MEL-28 melanoma | SK-MEL-5 melanoma | SK-OV-3 ovarian | SN12C renal | SNB-19 CNS | SW-620 colon | T-47D breast | TK-10 renal | U251 CNS | UACC-257 melanoma | UACC-62 melanoma | UO-31 renal

COC(=O)[C@H](Cc1ccc(O)cc1)NC(=O)[C@H](Cc1ccc(O)cc1)NC(=O)OC(C)(C)C (Boc-Tyr-Tyr-OMe)
> 100 µM: 786-0 renal | A549 NSCLC | ACHN renal | BT-549 breast | CAKI-1 renal | COLO 205 colon | DU-145 prostate | EKVX NSCLC | HCC-2998 colon | HCT-116 colon | HCT-15 colon | HOP-62 NSCLC | HS 578T breast | HT29 colon | IGROV1 ovarian | KM12 colon | LOX IMVI melanoma | M14 melanoma | MALME-3M melanoma | MCF7 breast | MDA-MB-231 breast | MDA-N | NCI-H226 lung | NCI-H23 lung | NCI-H460 lung | NCI-H522 lung | NCI/ADR-RES ovarian | OVCAR-3 ovarian | OVCAR-5 ovarian | OVCAR-8 ovarian | PC-3 prostate | RXF 393 renal | SF-268 CNS | SF-295 CNS | SF-539 CNS | SK-MEL-5 melanoma | SK-OV-3 ovarian | SNB-19 CNS | SNB-75 CNS | TK-10 renal | UACC-257 melanoma | UACC-62 melanoma | UO-31 renal

CNC1(C(=O)O)CC1
> 100 µM: 786-0 renal | A498 renal | A549 NSCLC | ACHN renal | CCRF-CEM leukemia | DU-145 prostate | EKVX NSCLC | HCC-2998 colon | HCT-116 colon | HCT-15 colon | HL-60(TB) leukemia | HOP-62 NSCLC | HOP-92 NSCLC | HS 578T breast | HT29 colon | IGROV1 ovarian | K-562 leukemia | KM12 colon | LOX IMVI melanoma | M14 melanoma | MALME-3M melanoma | MCF7 breast | MDA-MB-231 breast | MDA-MB-435 | MDA-N | MOLT-4 leukemia | NCI-H226 lung | NCI-H23 lung | NCI-H460 lung | NCI-H522 lung | NCI/ADR-RES ovarian | OVCAR-3 ovarian | OVCAR-4 ovarian | OVCAR-5 ovarian | OVCAR-8 ovarian | PC-3 prostate | RPMI-8226 leukemia | RXF 393 renal | SF-268 CNS | SF-295 CNS | SF-539 CNS | SK-MEL-28 melanoma | SK-MEL-5 melanoma | SN12C renal | SNB-19 CNS | SR leukemia | SW-620 colon | T-47D breast | TK-10 renal | U251 CNS | UACC-257 melanoma | UACC-62 melanoma
